The target in this experiment is T1, ICE (IL-1β converting enzyme), recombinant (Homo sapiens, UniProt P29466).
T1 construct: positions corresponding to molecular weights of 25,000 and 15,800; made in house; host or cells: Sf9 insect cells (baculovirus, pVL-ICE)
T1 sequence (P29466 120-297 limits assumed): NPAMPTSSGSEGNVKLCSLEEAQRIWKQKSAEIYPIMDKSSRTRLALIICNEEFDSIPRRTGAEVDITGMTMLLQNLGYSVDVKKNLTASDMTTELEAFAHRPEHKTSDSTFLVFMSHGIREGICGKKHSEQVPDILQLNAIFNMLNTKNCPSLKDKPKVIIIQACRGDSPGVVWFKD
T1 sequence (P29466 317-404 limits assumed): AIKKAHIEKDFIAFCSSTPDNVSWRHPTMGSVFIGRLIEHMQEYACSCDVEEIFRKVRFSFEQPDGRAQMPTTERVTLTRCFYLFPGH
Kind of experiment: Determination of ICE-inhibiting activity (fluorogenic substrate Ac-Y-V-A-D-MCA). In kind it is biochemical. Conditions: recombinant ICE enzyme solution, 37° C. for 20 minutes, read-out: ICE-inhibiting activity in terms of IC50 value. As for the experimental part: Two ml of the ICE expression recombinant virus suspension as prepared in Reference Example 5 was added to the insect cell Sf9 cultured in 2 1 of Sf900 medium containing 5% fetal calf serum (FCS) (1.5×10^6 cells/ml) to cause infection. Post-infection cultivation was conducted at 27° C. in a spinner flask for 4 days. Cultured cells were recovered (hereinafter all operations conducted on ice), washed 3 times with PBS (-), and suspended in a hypotonic buffer (20 mM KCl, 25 mM HEPES, pH 7.4, 5 MM MgCl2, 1 MM EDTA, 1 MM PMSF, 10 μg/ml pepstatin and leupeptine) to 10^8 cells/ml. After the suspension was kept standing on ice for 20 minutes, cells were disrupted (25 times) using a Dounce homogenizer. Disrupted cells were removed via centrifugation; ammonium sulfate was added to the supernatant to 40% saturation; the precipitate fraction was removed via centrifugation. Ammonium sulfate was further added to 80% saturation; the precipitate was recovered. The precipitate was dissolved in buffer A (20 mM KCl, 25 mM HEPES, pH 7.4, 5 mM EDTA, 2 mM DTT, 1 mM PMSF, 0.1% NP-40, 10% glycerol) and dialyzed against buffer A overnight. […]
After completion of the reaction, the fluorescence intensity of free aminomethylcoumarin was determined at a wavelength of 450 nm via excitation at a wavelength of 365 nm, using a fluorometer FCA (produced by Baxter). […]

Where a SMILES comes first, the peptide text is derived from it. [ ]: non-standard residue; d: D form. The star is where a group is joined. Fmoc = O=C(OCC1c2ccccc2-c2ccccc21)*; Aib = CC(C)(N)C(=O)O

Usually IC50 stands for the concentration needed to halve the response being measured. As for `CC(C)[C@H](NC(=O)OCC1c2ccccc2-c2ccccc21)C(=O)NC(C)(C)C(=O)N[C@H](C=O)CC(=O)O` [Example 60, Fmoc-Val-Aib-NH--CH(CHO)CH2 COOH] (Fmoc-Val-[Aib]-Asp-aldehyde), the IC50 was determined as 19 nM.

For the origin of these results see patent US6162828A, “Cysteine protease inhibitor” (Takeda Chemical Industries, Ltd., priority 1995, dated 2000).
